Measurements from patent US9763445B2, “Safened herbicidal compositions comprising a pyridine carboxylic acid herbicide” (Dow AgroSciences, LLC, priority 2014, dated 2017).

How the values were obtained:
spring wheat (TRZAS) = assay: Postemergence greenhouse trial, % visual injury on spring wheat; type: in vivo, Triticum aestivum
In short: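 Postemergence greenhouse spray (187 L/ha, 1.5% v/v Agri-dex in water, acetone/DMSO stocks) on plants at second–third true leaf stage, ~23/22 °C, 14 h photoperiod; herbicides in g ae/ha, safener cloquintocet-mexyl in g ai/ha. Visual injury 0–100% versus solvent-blank controls after 20–22 d; Colby's equation gave expected mixture effects.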

spring barley (HORVS) = assay: Postemergence greenhouse trial, % visual injury on spring barley; type: in vivo, Hordeum vulgare
In short: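 Greenhouse crops at second to third true leaf stage sprayed postemergence at 187 L/ha with herbicide (g ae/ha) plus safener (g ai/ha) in acetone/DMSO diluted into 1.5% v/v Agri-dex. Injury scored visually versus solvent-blank controls after 20-22 d, 0 (none) to 100% (complete kill); expected mixture effects by Colby's equation.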

shepherd's purse (CAPBP) = assay: Postemergence greenhouse trial, % visual injury on shepherd's purse; type: in vivo, Capsella bursa-pastoris; conditions: alone
Description: (§1) Seeds of the desired test plant species were planted in Sun Gro MetroMix® 306 planting mixture, which typically has a pH of 6.0 to 6.8 and an organic matter content of about 30 percent, in plastic pots with a surface area of 103.2 square centimeters (cm^2). When required to ensure good germination and healthy plants, a fungicide treatment and/or other chemical or physical treatment was applied. The plants were grown for 7-36 days (d) in a greenhouse with an approximate 14-hour (h) photoperiod which was maintained at about 23° C. during the day and 22° C. during the night. Nutrients and water were added on a regular basis and supplemental lighting was provided with overhead metal halide 1000-Watt lamps as necessary. The plants were employed for testing when they reached the second or third true leaf stage.
(§2) Weighed amounts of technical material were dissolved in a volume of 97:3 volume per volume (v/v) acetone/dimethyl sulfoxide (DMSO) to stock solutions. […] The concentrated stock solutions were diluted with an aqueous mixture of 1.5% v/v of Agri-dex crop oil concentrate to provide the appropriate application rates. Compound requirements are based upon a 12 milliliter (mL) application volume at a rate of 187 liters per hectare (L/ha). Stocks solutions of the safeners were prepared following the same procedure. Spray solutions of the safeners and experimental compound mixtures were prepared by adding the stock solutions to the appropriate amount of dilution solution to form a 12 mL spray solution in two-way combinations. Formulated compounds were applied to the plant material with an overhead Mandel track sprayer equipped with 8002E nozzles calibrated to deliver 187 L/ha over an application area of 0.503 square meters (m^2) at a spray height of 18 inches (43 centimeters (cm)) above average plant canopy. Control plants were sprayed in the same manner with the solvent blank. All herbicide application (component a) rates are in g ae/ha and all safener (component b) rates are in g ai/ha.
(§3) The treated plants and control plants were placed in a greenhouse as described above and watered by sub-irrigation to prevent wash-off of the test compounds. After 20-22 d, the condition of the test plants as compared with that of the control plants was determined visually and scored on a scale of 0 to 100 percent where 0 corresponds to no injury and 100 corresponds to complete kill. The condition of the test plants was compared with that of the control plants as determined visually and scored on a scale of 0 to 100 percent, where 0 corresponds to no injury and 100 corresponds to complete kill. Colby's equation was used to determine the herbicidal effects expected from the mixtures.
(§4) The safener cloquintocet-mexyl was combined with compound 1, compound 2, compound 3, compound 7, compound 8, compound 9, compound 10, compound 11, compound 12, compound 13, compound 14, compound 15, compound 16, compound 17, compound 18, compound 19, and compound 20, and applied to spring wheat (TRZAS), winter wheat (TRZAW), and spring barley (HORVS) and the phytotoxicity of the herbicidal compositions was measured. […]

cornflower (CENCY) = assay: Postemergence greenhouse trial, % visual injury on cornflower; type: in vivo, Centaurea cyanus or Cyanus segetum; conditions: alone
Description: as §1, §2, §3, §4

lambsquarters (CHEAL) = assay: Postemergence greenhouse trial, % visual injury on lambsquarters; type: in vivo, Chenopodium album; conditions: CHEAL, applied alone
In short: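 Plants at second or third true leaf stage, greenhouse-grown (14 h photoperiod, ~23/22° C.), sprayed postemergence with compounds alone or with safener cloquintocet-mexyl in 1.5% v/v Agri-dex crop oil at 187 L/ha. Visual injury scored 0–100% versus solvent-blank controls after 20-22 d; expected mixture effects by Colby's equation.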

CCCCCC(C)OC(=O)COc1ccc(Cl)c2cccnc12 (stereo not drawn) [CQC-m, cloquintocet-mexyl, reference compound]
0%: % visual injury, Ob (spring wheat (TRZAS); TRZAS, 4.375 g/ha, applied alone) | % visual injury, Ob (spring wheat (TRZAS); TRZAS, 8.75 g/ha, applied alone) | % visual injury, Ob (spring wheat (TRZAS); TRZAS, 17.5 g/ha, applied alone) | % visual injury, Ob (spring wheat (TRZAS); TRZAS, 35 g/ha, applied alone) | % visual injury, Ob (spring wheat (TRZAS); TRZAS, 70 g/ha, applied alone) | % visual injury, Ob (spring wheat (TRZAS); TRZAS, compound 0, CQC-m 4.375 g/ha) | % visual injury, Ob (spring wheat (TRZAS); TRZAS, compound 0, CQC-m 8.75 g/ha) | % visual injury, Ob (spring wheat (TRZAS); TRZAS, compound 0, CQC-m 17.5 g/ha) | % visual injury, Ob (spring wheat (TRZAS); TRZAS, compound 0, CQC-m 35 g/ha) | % visual injury, Ob (spring wheat (TRZAS); TRZAS, compound 0, CQC-m 70 g/ha) | % visual injury, Ob (spring wheat (TRZAS); TRZAS, compound 0 g/ha, CQC-m 4.375 g/ha) | % visual injury, Ob (spring wheat (TRZAS); TRZAS, compound 0 g/ha, CQC-m 8.75 g/ha) | % visual injury, Ob (spring wheat (TRZAS); TRZAS, compound 0 g/ha, CQC-m 17.5 g/ha) | % visual injury, Ob (spring wheat (TRZAS); TRZAS, compound 0 g/ha, CQC-m 35 g/ha) | % visual injury, Ob (spring wheat (TRZAS); TRZAS, compound 0 g/ha, CQC-m 70 g/ha) | % visual injury, observed (Ob) (spring wheat (TRZAS); TRZAS, compound 8 0 + CQC-m 4.375 g/ha) | % visual injury, observed (Ob) (spring wheat (TRZAS); TRZAS, compound 8 0 + CQC-m 8.75 g/ha) | % visual injury, observed (Ob) (spring wheat (TRZAS); TRZAS, compound 8 0 + CQC-m 17.5 g/ha) | % visual injury, observed (Ob) (spring wheat (TRZAS); TRZAS, compound 8 0 + CQC-m 35 g/ha) | % visual injury, observed (Ob) (spring wheat (TRZAS); TRZAS, compound 8 0 + CQC-m 70 g/ha) | % visual injury, Ob (spring wheat (TRZAS); alone, 4.375 g/ha) | % visual injury, Ob (spring wheat (TRZAS); alone, 8.75 g/ha) | % visual injury, Ob (spring wheat (TRZAS); alone, 17.5 g/ha) | % visual injury, Ob (spring wheat (TRZAS); alone, 20 g/ha) | % visual injury, Ob (spring wheat (TRZAS); alone, 35 g/ha) | % visual injury, Ob (spring wheat (TRZAS); alone, 40 g/ha) | % visual injury, Ob (spring wheat (TRZAS); alone, 70 g/ha) | % visual injury, Ob (spring wheat (TRZAS); alone, 80 g/ha) | % visual injury, Ob (spring barley (HORVS); HORVS, 4.375 g/ha, applied alone) | % visual injury, Ob (spring barley (HORVS); HORVS, 8.75 g/ha, applied alone) | % visual injury, Ob (spring barley (HORVS); HORVS, 17.5 g/ha, applied alone) | % visual injury, Ob (spring barley (HORVS); HORVS, 35 g/ha, applied alone) | % visual injury, Ob (spring barley (HORVS); HORVS, 70 g/ha, applied alone) | % visual injury, Ob (spring barley (HORVS); HORVS, compound 0, CQC-m 4.375 g/ha) | % visual injury, Ob (spring barley (HORVS); HORVS, compound 0, CQC-m 8.75 g/ha) | % visual injury, Ob (spring barley (HORVS); HORVS, compound 0, CQC-m 17.5 g/ha) | % visual injury, Ob (spring barley (HORVS); HORVS, compound 0, CQC-m 35 g/ha) | % visual injury, Ob (spring barley (HORVS); HORVS, compound 0, CQC-m 70 g/ha) | % visual injury, Ob (spring barley (HORVS); HORVS, compound 0 g/ha, CQC-m 4.375 g/ha) | % visual injury, Ob (spring barley (HORVS); HORVS, compound 0 g/ha, CQC-m 8.75 g/ha) | % visual injury, Ob (spring barley (HORVS); HORVS, compound 0 g/ha, CQC-m 17.5 g/ha) | % visual injury, Ob (spring barley (HORVS); HORVS, compound 0 g/ha, CQC-m 35 g/ha) | % visual injury, Ob (spring barley (HORVS); HORVS, compound 0 g/ha, CQC-m 70 g/ha) | % visual injury, observed (Ob) (spring barley (HORVS); HORVS, compound 8 0 + CQC-m 4.375 g/ha) | % visual injury, observed (Ob) (spring barley (HORVS); HORVS, compound 8 0 + CQC-m 8.75 g/ha) | % visual injury, observed (Ob) (spring barley (HORVS); HORVS, compound 8 0 + CQC-m 17.5 g/ha) | % visual injury, observed (Ob) (spring barley (HORVS); HORVS, compound 8 0 + CQC-m 35 g/ha) | % visual injury, observed (Ob) (spring barley (HORVS); HORVS, compound 8 0 + CQC-m 70 g/ha) | % visual injury, Ob (spring barley (HORVS); alone, 4.375 g/ha) | % visual injury, Ob (spring barley (HORVS); alone, 8.75 g/ha) | % visual injury, Ob (spring barley (HORVS); alone, 17.5 g/ha) | % visual injury, Ob (spring barley (HORVS); alone, 20 g/ha) | % visual injury, Ob (spring barley (HORVS); alone, 35 g/ha) | % visual injury, Ob (spring barley (HORVS); alone, 40 g/ha) | % visual injury, Ob (spring barley (HORVS); alone, 70 g/ha) | % visual injury, Ob (spring barley (HORVS); alone, 80 g/ha) | % visual injury, Ob (shepherd's purse (CAPBP); 4.375 g/ha) | % visual injury, Ob (shepherd's purse (CAPBP); 8.75 g/ha) | % visual injury, Ob (shepherd's purse (CAPBP); 17.5 g/ha) | % visual injury, Ob (shepherd's purse (CAPBP); 35 g/ha) | % visual injury, Ob (shepherd's purse (CAPBP); 70 g/ha) | % visual injury, Ob (cornflower (CENCY); 4.375 g/ha) | % visual injury, Ob (cornflower (CENCY); 8.75 g/ha) | % visual injury, Ob (cornflower (CENCY); 35 g/ha) | % visual injury, Ob (lambsquarters (CHEAL); 4.375 g/ha) | % visual injury, Ob (lambsquarters (CHEAL); 8.75 g/ha) | % visual injury, Ob (lambsquarters (CHEAL); 17.5 g/ha) | % visual injury, Ob (lambsquarters (CHEAL); 35 g/ha) | % visual injury, Ob (lambsquarters (CHEAL); 70 g/ha)
